Measured values published in patent US8901120B2, “Substituted N-phenylpyrimidin-2-amine analogs as inhibitors of the Axl kinase” (University of Utah Research Foundation, priority 2011, dated 2014).

Assays:
[1] = tested on: Axl and the related members of the TAM family of kinases; test: Kinase profiling, Axl and TAM family; assay type: biochemical; conditions: 200 nM test compound, ATP at Km apparent, FIG. 9
Protocol: (§1) The specificity of kinase inhibition was assessed with a representative compound, 2-((5-chloro-2-((4-((4-methylpiperazin-1-yl)methyl)phenyl)amino)pyrimidin-4-yl)amino)-N,N-dimethylbenzenesulfonamide, by determining the activity of this test compound against a panel of protein kinases. Kinase profiling was performed against a focus panel of kinases relevant to PDK1 signaling and other known oncogenic kinases. The panel comprised 75 distinct protein kinases, and data are shown for a subset of 39 kineases (see FIG. 9). […] The results from this screen confirmed good activity against Axl and the related members of the TAM family of kinases.

pancreatic cancer cells = test: Cell migration assay (collagen I Platypus plates); assay type: cell-based; conditions: 18 hours migration, with Gas6, FIG. 10
Protocol: In this system, a gel prevents attachment of cells in a circle. The gel dissolves by exposure to the media, allowing cells to migrate into the open area. Cells migrated for 18 hours before fixation and staining. The extent of cell migration was determined by measuring the open surface in the inner circle of the well.

JAK family of kinases = test: Kinase profiling, JAK family; assay type: biochemical; conditions: 200 nM test compound, ATP at Km apparent, FIG. 9
Protocol: as §1

[2] = tested on: phosphorylated Akt (Ser473); test: GAS6-Axl signalling assay, phosphorylated Akt; assay type: cell-based; conditions: Homo sapiens; PSN-1 and PL45 cells, in the presence of Gas6, FIG. 8A; read-out: IC50, inhibition of phosphorylated Akt levels
Protocol: (§2) Cell lines were seeded in 1 ml of the appropriate growth media with 10% FBS into 6-well plates (8×10^5 cells/well) and incubated overnight at 37° C. and 5% CO2. The following day, serum-containing growth media was replaced by serum-free media and incubated for 4 hr, and then test compounds were added to the cells at desired concentrations and incubated for an additional 2 hr. To stimulate Axl signaling, Gas6 was added to each well to a concentration of 3 μg/ml and incubated for 10 min. The cells were lysed immediately and the lysates used in a multiplex ELISA kit (Meso Scale Discovery, Gaithersburg, Md.) to quantitate the phosphorylated AKT (at position Ser473′ “pAkt”) or phosphorylated Axl (“pAxl”).
To further explore the activity of a representative compound, 2-((5-chloro-2-((4-((4-methylpiperazin-1-yl)methyl)phenyl)amino)pyrimidin-4-yl)amino)-N,N-dimethylbenzenesulfonamide, of inhibiting Axl in a cell line system, the effect of the test compound on Akt phosphorylation (at the Ser473 position) was determined. The effect on Akt phosphorylation was assessed in two cell-lines (see FIG. 8A): PSN-1 and PL45. The overall method was as described above. Briefly, the cells were treated as indicated and lysates from these treatments were analyzed for phosphorylated Akt (Ser473) as described above.

[3] = tested on: phosphorylated Axl (pAxl); test: GAS6-Axl signalling assay, autophosphorylation of Axl; assay type: cell-based, Human; conditions: pancreatic cancer cell lines, GAS6 stimulation, FIG. 8B
Protocol: as §2

Aurora family of kinases = test: Kinase profiling, Aurora family; assay type: biochemical; conditions: 200 nM test compound, ATP at Km apparent, FIG. 9
Protocol: as §1

[4] = tested on: sAxl in PL45 and PSN-1 cells; test: Release of sAxl into cell culture media (ELISA); assay type: cell-based, Human; conditions: PL45 and PSN-1, serum-free, 24 hours, vs vehicle, FIG. 11
Protocol: Cell lines were plated and incubated overnight as described above. The following day the media was changed to serum-free and the cells were treated as indicated as indicated. After 24 hours, the media from the treatments were analyzed for sAxl (R&D Systems, Minneapolis, Minn.).
The proteolytic processing of the extracellular domain of the Axl receptor is a known event downstream of Axl activation and results in the release of soluble Axl (sAxl) into the cell culture media (in vitro) or into the blood stream (in vivo).

[5] = Pharmacokinetics after oral dosing; assay type: in vivo; conditions: mouse, mice, 50 mg/kg orally, plasma
Protocol: Mice were dosed orally with 50 mg/kg of the title compound. Blood was collected at the indicated time points (see FIG. 16).

PSN-1 cells = test: Tumor xenograft animal model; assay type: in vivo, mouse; conditions: PSN-1 xenograft, 50 mg/kg oral gavage daily (M-F)
Protocol: The in vivo activity of the foregoing compound was assessed in a tumor xenograft model in mouse. PSN-1 cells were cultured as described above and harvested. Cells (2 to 5×10^6 in 100 μl culture media) were implanted subcutaneously in the right hind flank of athymic nu/nu nude mice (5 to 6 weeks old, 18-22 g). Following implantation, the tumors are allowed to grow to 100 mm^3 before the animals are randomized into treatment groups (vehicle and test compound). Day 1 of study corresponds to the day that the animals receive their first dose of test compound (2-((5-chloro-2-((4-((4-methylpiperazin-1-yl)methyl)phenyl)amino)pyrimidin-4-yl)amino)-N,N-dimethylbenzenesulfonamide). The vehicle for this study was 5% EtOH, 45% PEG 400, and 50% water, and animals were dosed with either vehicle or test compound dissolved in this vehicle by oral gavage. The dose level was 50 mg/kg and dosing frequency was daily (M-F) with the test compound with recovery on the weekend.
The test compound was efficacious in limiting tumor growth, achieving about a 50% reduction in tumor volume at this dose level during this dosing period (FIG. 15).

For `CN1CCN(Cc2ccc(Nc3ncc(Cl)c(Nc4ccccc4S(=O)(=O)N(C)C)n3)cc2)CC1` [2-((5-chloro-2-((4-((4-methylpiperazin-1-yl)methyl)phenyl)amino)pyrimidin-4-yl)amino)-N,N-dimethylbenzenesulfonamide], the “activity against Axl and TAM family kinases in kinase profiling” value [1] was “good activity”, the “inhibition of Gas6-induced migration and invasion” value (pancreatic cancer cells) was “inhibited” and the “activity against JAK family kinases in kinase profiling” value (JAK family of kinases) was “significant activity”. The IC50 [2] was about 300 nM, the “inhibition of autophosphorylation of Axl” value [3] was “dramatically inhibited” and the “activity against Aurora family kinases in kinase profiling” value (Aurora family of kinases) was “significant activity”. The “reduction in sAxl levels in conditioned media” value [4] was “significant dose-dependent reductions”, the AUC(0-t) [5] was 507 ng·h/mL and the Cmax [5] was 604 ng/mL. For the same compound, the Tmax [5] was 15 min, the half-life [5] was 66 min and the “impact on body weight” value (PSN-1 cells; FIG. 14) was “no apparent impact”. For the same compound, the “reduction in tumor volume” value (PSN-1 cells; FIG. 15) was about 50%.
